{
  "source": "patent US20090143279A1",
  "about": "(priority 2007, published 2009)",
  "key": {"[1]": {"test_system": "mitochondrial membrane potential", "format": "cell-based, mouse", "settings": "for ΔΨm (composite Z-score): normalized score vs mock-treated (DMSO) wells"}, "reactive oxygen species": {"test_system": "reactive oxygen species", "format": "cell-based, mouse", "settings": "for ROS (composite Z-score): normalized score vs mock-treated (DMSO) wells"}, "OXPHOS gene expression": {"test_system": "OXPHOS gene expression", "format": "cell-based, mouse", "settings": "for GE-HTS (composite Z-score): normalized score vs mock-treated (DMSO) wells"}, "nuOXPHOS transcripts": {"test_system": "nuOXPHOS transcripts", "format": "cell-based, mouse", "settings": "for nucOX (composite Z-score): normalized score vs mock-treated (DMSO) wells"}, "mtOXPHOS transcripts": {"test_system": "mtOXPHOS transcripts", "format": "cell-based, mouse", "settings": "for mitoOX (composite Z-score): normalized score vs mock-treated (DMSO) wells"}, "cytochrome c": {"test_system": "cytochrome c", "format": "cell-based, mouse", "settings": "for cyt c (composite Z-score): normalized score vs mock-treated (DMSO) wells"}, "C2C12 myotubes": {"test_system": "C2C12 myotubes", "settings": "for Viability (composite Z-score): normalized score vs mock-treated (DMSO) wells"}, "[2]": {"test_system": "cellular dehydrogenase activity", "settings": "for MTT (composite Z-score): normalized score vs mock-treated (DMSO) wells"}, "[3]": {"settings": "composite Z-score vs mock-treated (DMSO) wells, Conc 20 μM"}, "[4]": {"settings": "composite Z-score vs mock-treated (DMSO) wells, concentration of each compound in μM"}, "[5]": {"settings": "20 μM, composite Z-score vs DMSO"}, "[6]": {"settings": "normalized composite Z-score vs mock-treated (DMSO) wells, Conc 20 μM"}, "[7]": {"settings": "composite Z-score vs DMSO, Conc 8.92 μM"}, "[8]": {"settings": "composite Z-score vs DMSO, Conc 20 μM"}},
  "note": "Read-outs that look alike come from different tables or passages of the source.",
  "data": [
    {"smiles": "CC(C)c1c(O)ccc2c1CCC1[C@@](C)(C=O)CCC[C@]21C", "note": "(stereo partly shown) [totaralolal]", "values": [
      {"measurement": "ΔΨm", "setting": "[1]; [3]", "value": 0.460},
      {"measurement": "ROS", "setting": "reactive oxygen species; [3]", "value": 1.617},
      {"measurement": "GE-HTS", "setting": "OXPHOS gene expression; [3]", "value": "−0.700"},
      {"measurement": "nucOX", "setting": "nuOXPHOS transcripts; [3]", "value": "−0.401"},
      {"measurement": "mitoOX", "setting": "mtOXPHOS transcripts; [3]", "value": "−1.230"},
      {"measurement": "cyt c", "setting": "cytochrome c; [3]", "value": "−0.226"},
      {"measurement": "Viability", "setting": "C2C12 myotubes; [3]", "value": 0.591},
      {"measurement": "MTT", "setting": "[2]; [3]", "value": 1.526}
    ]},
    {"smiles": "COC(=O)[C@@]1(C)CCC[C@]2(C)c3ccc(O)c(C(C)C)c3CCC12", "note": "(stereo partly shown) [totarol-19-carboxylic acid, methyl ester]", "values": [
      {"measurement": "ΔΨm", "setting": "[1]; [3]", "value": "−0.409"},
      {"measurement": "ROS", "setting": "reactive oxygen species; [3]", "value": 1.290},
      {"measurement": "GE-HTS", "setting": "OXPHOS gene expression; [3]", "value": "−0.323"},
      {"measurement": "nucOX", "setting": "nuOXPHOS transcripts; [3]", "value": "−0.005"},
      {"measurement": "mitoOX", "setting": "mtOXPHOS transcripts; [3]", "value": "−0.853"},
      {"measurement": "cyt c", "setting": "cytochrome c; [3]", "value": 0.085},
      {"measurement": "Viability", "setting": "C2C12 myotubes; [3]", "value": "−0.739"},
      {"measurement": "MTT", "setting": "[2]; [3]", "value": 1.019}
    ]},
    {"smiles": "CC(C)c1c(O)ccc2c1CCC1C(C)(C(=O)O)CCCC21C", "note": "(stereo not shown) [totarol-19-carboxylic acid]", "values": [
      {"measurement": "ΔΨm", "setting": "[1]; [4]", "value": "−0.008"},
      {"measurement": "ROS", "setting": "reactive oxygen species; [4]", "value": "−0.209"},
      {"measurement": "GE-HTS", "setting": "OXPHOS gene expression; [4]", "value": "−0.399"},
      {"measurement": "nucOX", "setting": "nuOXPHOS transcripts; [4]", "value": "−0.494"},
      {"measurement": "mitoOX", "setting": "mtOXPHOS transcripts; [4]", "value": "−0.073"},
      {"measurement": "cyt c", "setting": "cytochrome c; [4]", "value": "−1.116"},
      {"measurement": "Viability", "setting": "C2C12 myotubes; [4]", "value": "−0.506"},
      {"measurement": "MTT", "setting": "[2]; [4]", "value": "−1.701"}
    ]},
    {"smiles": "CCOC(=O)[C@H](CCc1ccccc1)N[C@@H](C)C(=O)N1[C@H](C(=O)O)C[C@H]2CCCC[C@@H]21", "note": "[trandoapril]", "values": [
      {"measurement": "ΔΨm", "setting": "[1]; [4]", "value": "−0.210"},
      {"measurement": "ROS", "setting": "reactive oxygen species; [4]", "value": 0.572},
      {"measurement": "GE-HTS", "setting": "OXPHOS gene expression; [4]", "value": "−1.375"},
      {"measurement": "nucOX", "setting": "nuOXPHOS transcripts; [4]", "value": "−1.466"},
      {"measurement": "mitoOX", "setting": "mtOXPHOS transcripts; [4]", "value": "−0.884"},
      {"measurement": "cyt c", "setting": "cytochrome c; [4]", "value": 0.687},
      {"measurement": "Viability", "setting": "C2C12 myotubes; [4]", "value": 0.694},
      {"measurement": "MTT", "setting": "[2]; [4]", "value": "−0.684"}
    ]},
    {"smiles": "CC(=O)OCC(COC(C)=O)OC(C)=O", "note": "[triacetin]", "values": [
      {"measurement": "ΔΨm", "setting": "[1]; [5]", "value": "−0.571"},
      {"measurement": "ROS", "setting": "reactive oxygen species; [5]", "value": 0.431},
      {"measurement": "GE-HTS", "setting": "OXPHOS gene expression; [5]", "value": "−0.327"},
      {"measurement": "nucOX", "setting": "nuOXPHOS transcripts; [5]", "value": "−0.187"},
      {"measurement": "mitoOX", "setting": "mtOXPHOS transcripts; [5]", "value": "−0.569"},
      {"measurement": "cyt c", "setting": "cytochrome c; [5]", "value": "−0.264"},
      {"measurement": "Viability", "setting": "C2C12 myotubes; [5]", "value": "−0.842"},
      {"measurement": "MTT", "setting": "[2]; [5]", "value": "−0.717"}
    ]},
    {"smiles": "CC(=O)Oc1ccc(/C=C/c2cc(OC(C)=O)cc(OC(C)=O)c2)cc1", "note": "[triacetylresveratrol]", "values": [
      {"measurement": "ΔΨm", "setting": "[1]; [6]", "value": "−3.502"},
      {"measurement": "ROS", "setting": "reactive oxygen species; [6]", "value": "−1.361"},
      {"measurement": "GE-HTS", "setting": "OXPHOS gene expression; [6]", "value": "−1.841"},
      {"measurement": "nucOX", "setting": "nuOXPHOS transcripts; [6]", "value": "−1.858"},
      {"measurement": "mitoOX", "setting": "mtOXPHOS transcripts; [6]", "value": "−1.401"},
      {"measurement": "cyt c", "setting": "cytochrome c; [6]", "value": 0.683},
      {"measurement": "Viability", "setting": "C2C12 myotubes; [6]", "value": "−0.198"},
      {"measurement": "MTT", "setting": "[2]; [6]", "value": "−2.002"}
    ]},
    {"smiles": "CC(CN(C)C)CN1c2ccccc2Sc2ccccc21", "note": "(stereo not shown) [trimeprazine]", "values": [
      {"measurement": "ΔΨm", "setting": "[1]; [7]", "value": "−0.821"},
      {"measurement": "ΔΨm", "setting": "[1]; [8]", "value": 1.905},
      {"measurement": "ROS", "setting": "reactive oxygen species; [7]", "value": 1.314},
      {"measurement": "ROS", "setting": "reactive oxygen species; [8]", "value": "−0.430"},
      {"measurement": "GE-HTS", "setting": "OXPHOS gene expression; [7]", "value": "−0.942"},
      {"measurement": "GE-HTS", "setting": "OXPHOS gene expression; [8]", "value": "−0.013"},
      {"measurement": "nucOX", "setting": "nuOXPHOS transcripts; [7]", "value": "−0.936"},
      {"measurement": "nucOX", "setting": "nuOXPHOS transcripts; [8]", "value": "−0.130"},
      {"measurement": "mitoOX", "setting": "mtOXPHOS transcripts; [7]", "value": "−0.778"},
      {"measurement": "mitoOX", "setting": "mtOXPHOS transcripts; [8]", "value": 0.208},
      {"measurement": "cyt c", "setting": "cytochrome c; [7]", "value": "−2.786"},
      {"measurement": "cyt c", "setting": "cytochrome c; [8]", "value": "−0.086"},
      {"measurement": "Viability", "setting": "C2C12 myotubes; [7]", "value": 0.760},
      {"measurement": "Viability", "setting": "C2C12 myotubes; [8]", "value": "−1.472"},
      {"measurement": "MTT", "setting": "[2]; [7]", "value": "−2.221"},
      {"measurement": "MTT", "setting": "[2]; [8]", "value": "−2.227"}
    ]},
    {"smiles": "CC(C)c1ccc2c(c1O)CC[C@H]1C3=C(CC[C@]21C)C(=O)OC3", "note": "[triptophenolide]", "values": [
      {"measurement": "ΔΨm (composite Z-score)", "setting": "[1]; Conc 20 μM", "value": 1.886},
      {"measurement": "ROS (composite Z-score)", "setting": "reactive oxygen species; Conc 20 μM", "value": "−1.072"},
      {"measurement": "GE-HTS (composite Z-score)", "setting": "OXPHOS gene expression; Conc 20 μM", "value": "−0.110"},
      {"measurement": "nucOX (composite Z-score)", "setting": "nuOXPHOS transcripts; Conc 20 μM", "value": 0.038},
      {"measurement": "mitoOX (composite Z-score)", "setting": "mtOXPHOS transcripts; Conc 20 μM", "value": "−0.350"},
      {"measurement": "cyt c (composite Z-score)", "setting": "cytochrome c; Conc 20 μM", "value": "−0.593"},
      {"measurement": "Viability (composite Z-score)", "setting": "C2C12 myotubes; Conc 20 μM", "value": "−0.599"},
      {"measurement": "MTT (composite Z-score)", "setting": "[2]; Conc 20 μM", "value": "−1.067"}
    ]},
    {"smiles": "CO[C@H]1C[C@H](O[C@H]2[C@H](C)[C@@H](O[C@@H]3O[C@H](C)C[C@H](N(C)C)[C@H]3OC(C)=O)[C@@H](C)C[C@@]3(CO3)C(=O)[C@H](C)[C@@H](OC(C)=O)[C@@H](C)[C@@H](C)OC(=O)[C@@H]2C)O[C@@H](C)[C@@H]1OC(C)=O", "note": "[troleandomycin]", "values": [
      {"measurement": "ΔΨm", "setting": "[1]; [8]", "value": "−0.780"},
      {"measurement": "ROS", "setting": "reactive oxygen species; [8]", "value": 0.099},
      {"measurement": "GE-HTS", "setting": "OXPHOS gene expression; [8]", "value": "−1.234"},
      {"measurement": "nucOX", "setting": "nuOXPHOS transcripts; [8]", "value": "−1.277"},
      {"measurement": "mitoOX", "setting": "mtOXPHOS transcripts; [8]", "value": "−0.905"},
      {"measurement": "cyt c", "setting": "cytochrome c; [8]", "value": "−0.063"},
      {"measurement": "Viability", "setting": "C2C12 myotubes; [8]", "value": "−1.520"},
      {"measurement": "MTT", "setting": "[2]; [8]", "value": "−1.250"}
    ]},
    {"smiles": "C=C(C)C1Cc2c(ccc(C(=O)O)c2O)O1", "note": "(stereo not shown) [tubaic acid]", "values": [
      {"measurement": "ΔΨm (composite Z-score)", "setting": "[1]; Conc 20 μM", "value": "−0.489"},
      {"measurement": "ROS (composite Z-score)", "setting": "reactive oxygen species; Conc 20 μM", "value": 0.646},
      {"measurement": "GE-HTS (composite Z-score)", "setting": "OXPHOS gene expression; Conc 20 μM", "value": "−0.746"},
      {"measurement": "nucOX (composite Z-score)", "setting": "nuOXPHOS transcripts; Conc 20 μM", "value": "−1.065"},
      {"measurement": "mitoOX (composite Z-score)", "setting": "mtOXPHOS transcripts; Conc 20 μM", "value": 0.070},
      {"measurement": "cyt c (composite Z-score)", "setting": "cytochrome c; Conc 20 μM", "value": 0.089},
      {"measurement": "Viability (composite Z-score)", "setting": "C2C12 myotubes; Conc 20 μM", "value": "−0.569"},
      {"measurement": "MTT (composite Z-score)", "setting": "[2]; Conc 20 μM", "value": 0.150}
    ]}
  ]
}
